Biological target: toxin A from C. difficile (Clostridioides difficile, UniProt P16154)
Experiment: Protection of T84 monolayers against C. difficile toxin A (transepithelial electrical resistance)
Type: cell-based, Clostridium difficile
Conditions: T84 cells; prebiotic in combination with the same probiotic strains; fructooligosaccharides 20 g/l, galactooligosaccharides 20 g/l, sialyllactose 10 g/l; compared with preparations of the invention; FIG. 2

toxin A from C. difficile, sequence (P16154 whole entry, looked up): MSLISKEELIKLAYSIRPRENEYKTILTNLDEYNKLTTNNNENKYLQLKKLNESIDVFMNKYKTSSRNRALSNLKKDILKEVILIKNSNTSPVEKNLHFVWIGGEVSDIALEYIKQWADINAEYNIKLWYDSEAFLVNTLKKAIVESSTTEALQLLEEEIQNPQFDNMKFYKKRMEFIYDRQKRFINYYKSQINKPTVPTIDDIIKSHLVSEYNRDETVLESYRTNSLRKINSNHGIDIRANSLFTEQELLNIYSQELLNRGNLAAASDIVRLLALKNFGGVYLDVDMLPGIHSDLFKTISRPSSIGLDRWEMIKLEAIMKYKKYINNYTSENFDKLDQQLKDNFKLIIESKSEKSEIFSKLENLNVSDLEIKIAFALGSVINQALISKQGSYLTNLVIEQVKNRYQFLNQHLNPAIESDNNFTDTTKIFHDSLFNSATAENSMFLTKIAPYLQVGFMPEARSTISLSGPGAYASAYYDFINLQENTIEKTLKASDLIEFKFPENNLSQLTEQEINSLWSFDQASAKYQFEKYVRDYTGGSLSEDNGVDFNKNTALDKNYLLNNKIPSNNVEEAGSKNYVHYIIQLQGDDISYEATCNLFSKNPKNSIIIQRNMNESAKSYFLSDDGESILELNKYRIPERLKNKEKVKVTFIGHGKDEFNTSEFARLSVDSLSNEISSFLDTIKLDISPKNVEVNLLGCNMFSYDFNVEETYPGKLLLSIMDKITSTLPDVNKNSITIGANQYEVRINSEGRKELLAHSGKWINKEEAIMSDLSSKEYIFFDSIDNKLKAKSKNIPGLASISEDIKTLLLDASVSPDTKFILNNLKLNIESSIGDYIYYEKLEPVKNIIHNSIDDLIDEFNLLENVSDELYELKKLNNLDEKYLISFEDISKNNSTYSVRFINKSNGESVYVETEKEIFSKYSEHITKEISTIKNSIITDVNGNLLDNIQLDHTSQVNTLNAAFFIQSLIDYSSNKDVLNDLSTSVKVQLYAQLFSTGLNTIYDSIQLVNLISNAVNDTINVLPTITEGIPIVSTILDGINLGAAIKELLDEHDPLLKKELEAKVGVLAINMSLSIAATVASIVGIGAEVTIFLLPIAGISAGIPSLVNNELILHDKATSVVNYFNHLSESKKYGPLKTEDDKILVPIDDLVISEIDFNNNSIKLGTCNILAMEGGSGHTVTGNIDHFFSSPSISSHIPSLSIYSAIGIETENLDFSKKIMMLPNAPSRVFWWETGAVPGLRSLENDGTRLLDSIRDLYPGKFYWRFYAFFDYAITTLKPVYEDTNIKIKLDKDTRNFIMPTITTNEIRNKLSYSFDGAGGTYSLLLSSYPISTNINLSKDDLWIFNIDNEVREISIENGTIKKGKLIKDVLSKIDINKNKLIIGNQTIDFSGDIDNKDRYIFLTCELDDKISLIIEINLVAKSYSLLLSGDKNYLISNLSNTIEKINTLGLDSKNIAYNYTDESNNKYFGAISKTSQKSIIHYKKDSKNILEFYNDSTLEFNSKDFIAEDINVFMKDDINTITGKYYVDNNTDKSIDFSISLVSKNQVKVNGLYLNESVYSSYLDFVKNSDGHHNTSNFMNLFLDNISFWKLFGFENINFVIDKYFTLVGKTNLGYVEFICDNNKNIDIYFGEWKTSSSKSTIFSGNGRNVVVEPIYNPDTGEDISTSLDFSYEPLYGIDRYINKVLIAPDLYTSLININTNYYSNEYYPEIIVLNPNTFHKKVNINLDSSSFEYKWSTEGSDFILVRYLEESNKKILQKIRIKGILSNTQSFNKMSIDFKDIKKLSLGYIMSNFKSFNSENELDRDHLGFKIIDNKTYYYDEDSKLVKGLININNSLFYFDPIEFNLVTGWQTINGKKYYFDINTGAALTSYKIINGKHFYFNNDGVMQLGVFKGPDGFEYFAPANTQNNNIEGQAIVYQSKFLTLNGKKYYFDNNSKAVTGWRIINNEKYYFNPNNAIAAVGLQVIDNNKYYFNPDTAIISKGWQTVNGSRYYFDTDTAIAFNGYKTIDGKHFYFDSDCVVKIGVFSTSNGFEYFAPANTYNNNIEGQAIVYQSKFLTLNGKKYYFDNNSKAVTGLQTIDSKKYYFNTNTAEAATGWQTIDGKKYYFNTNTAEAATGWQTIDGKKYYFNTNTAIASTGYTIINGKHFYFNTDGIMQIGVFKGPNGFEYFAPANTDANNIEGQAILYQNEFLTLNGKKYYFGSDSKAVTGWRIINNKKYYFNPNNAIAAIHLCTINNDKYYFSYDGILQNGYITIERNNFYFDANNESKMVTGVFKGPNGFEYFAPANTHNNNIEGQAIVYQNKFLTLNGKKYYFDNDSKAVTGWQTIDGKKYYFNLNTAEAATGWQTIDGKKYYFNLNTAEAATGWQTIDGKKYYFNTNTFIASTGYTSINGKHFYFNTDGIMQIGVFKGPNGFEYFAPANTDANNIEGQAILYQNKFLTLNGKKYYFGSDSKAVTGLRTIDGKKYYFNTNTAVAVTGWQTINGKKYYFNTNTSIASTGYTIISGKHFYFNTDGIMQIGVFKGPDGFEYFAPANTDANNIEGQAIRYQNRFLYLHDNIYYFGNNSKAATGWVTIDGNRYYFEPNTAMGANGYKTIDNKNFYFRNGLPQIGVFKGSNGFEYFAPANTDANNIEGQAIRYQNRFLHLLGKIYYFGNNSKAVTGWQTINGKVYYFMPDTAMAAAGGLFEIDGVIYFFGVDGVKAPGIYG

Substance: sialyllactose
- effect against C. difficile toxin A (TER, normalized protection score): a comparable effect was not achieved

Reference: US10092606B2, “Synbiotic mixture” (Nestec S.A., priority 2006, dated 2018)
